From PMC6610665, “On the potential of in vitro organ-chip models to define temporal pharmacokinetic-pharmacodynamic relationships” (Scientific Reports, 2019)
Where two headings read alike, the source gives them in different places.

Assays:
[1] = set-up: method as in PMID 18587422, PMID 16581270; conditions: Guinea pig; assumed for FPD simulation; cited from earlier work
[2] = set-up: method as in PMID 18587422, PMID 16581270; conditions: human; assumed for FPD simulation; cited from earlier work
[3] = heart only model, 5 µM terfenadine
Procedure: (§1) All drugs were separated using gradient elution methodology on a C18 phase (Agilent Zorbax Eclipse Plus, 4.6 mm, 100 mm length, 3 µm particle diameter) with binary mobile phase. Samples (50 µL) were diluted with acetonitrile and centrifuged to precipitate proteins after addition of the internal standard. The MS was set to positive ion mode and multiple reactive monitoring with nitrogen used for collision induced dissociation.

[4] = set-up: method as in PMID 18587422, PMID 16581270; conditions: dog; assumed for FPD simulation; cited from earlier work
[5] = heart:liver model, 5 µM terfenadine, mean ± SD
Procedure: as §1

[6] = tested on: hiPS-CMs; test: Heart only MPS model, field potential duration (FPD) by MEA; type: cell-based, human; conditions: 5 µM terfenadine
[7] = Heart only and heart:liver chip PKPD model (Phoenix NLME 7.0)
Procedure: Heart, liver, media, and PDMS compartments and their corresponding parameters can be seen outlined in Fig. 4a.
A fifth compartment, FPD, was added to the Phoenix model to represent a PD profile linked to the defined PK model.
Using the experimental data collected (Fig. 3), parameters (except for Kint) were simultaneously fit across heart only and heart-liver systems. […] In the heart only case, the liver compartment was eliminated resulting in relevant parameters being equal to 0. Volumes of each compartment was defined by system parameters described above. The liver volume was initialized based on the system estimates but allowed to vary to account for any differences between assumed and actual cell numbers or sizes. […] Published Guinea pig[23], dog[24] and human, PK profiles were used as inputs into the established model in order to predict cardiac bioaccumulation over time, and therefore predict change in predicted FPD. While Guinea pig and dog temporal PKPD data is available in the literature, matching human data is not. […] The reported standard deviation values in PK profile were used to capture the associated error in predicted FPD values.

[8] = fit across heart only and heart:liver systems

Compound | percent free protein in plasma [1] [%] | percent free protein in plasma [2] [%] | terfenadine concentration in media ([3]; 12-hour timepoint) [µM] | terfenadine concentration in media (peak) ([3]; 0.5 hours, mean ± SD) [µM] | terfenadine concentration in cardiomyocyte lysates (peak) ([3]; 4 hours, mean ± SD) [µM] | percent free protein in plasma [4] [%] | terfenadine concentration in media (peak) ([5]; 0.5 hours) [µM] | terfenadine concentration in heart chamber lysate (peak) ([5]; peak between 0.5 and 1 hours) [µM] | terfenadine concentration in liver chamber lysate (peak) ([5]; peak between 0.5 and 1 hours) [µM] | increase in FPD ([6]; 12-hour timepoint) [fold] | increase in FPD (peak measurable change) ([6]; 4 hours) [fold] | KC1 (flow medium to heart), estimate [7, 8] [min⁻¹] | KP2 (first order flow PDMS to medium), estimate [7, 8] [min⁻¹] | Kfc (metabolism of terfenadine to fexofenadine in heart compartment), estimate [7, 8] [min⁻¹] | KL2 (flow liver to medium), estimate ([7]; heart:liver system) [min⁻¹] | Kfl (metabolism of terfenadine to fexofenadine in liver compartment), estimate ([7]; heart:liver system) [min⁻¹] | tvKint (delay of fexofenadine release into the system), estimate ([7]; fit to fexofenadine concentration data, units printed n/a)
CC(C)(C)c1ccc(C(O)CCCN2CCC(C(O)(c3ccccc3)c3ccccc3)CC2)cc1 (centres unmarked) [terfenadine] | 3 | 3 | 0.099 | 5.88 | 2.65 | 2 | 0.53 | 1.08 | 12.04 | 4.8 | 8 | 0.0019 | 0.00052 | 0.0009 | 0.04988 | 0.0162 | 
CC(C)(C(=O)O)c1ccc(C(O)CCCN2CCC(C(O)(c3ccccc3)c3ccccc3)CC2)cc1 (centres unmarked) [fexofenadine] |  |  |  |  |  |  |  |  |  |  |  |  |  |  |  |  | 0.00062
